Literature values as cited in PMC12308805, “Ultrahigh-Throughput Virtual Screening Strategies against PPI Targets: A Case Study of STAT Inhibitors” (Journal of Chemical Information and Modeling, 2025).
Numbered stars: 1 amine (or outer) side, 2 acyl side, 3 side chain; on linkers, the order of the positions; unused ones are H or OH. Square brackets hold non-standard residues; d marks the D form. Peptide text beside a SMILES is read from it. * marks the point of attachment. Phe(4-tetrazol-5-yl) = N[C@@H](Cc1ccc(-c2nnn[nH]2)cc1)C(=O)O; X5 = O=C([C@@H]1[C@@H]2C[C@@H]2CN1[*:1])[*:2]; pY = N[C@@H](Cc1ccc(OP(=O)(O)O)cc1)C(=O)O; X1 = O=C(c1cc2cc(OP(=O)(O)O)ccc2[nH]1)*; X4 = O=C(/C=C/c1ccc(OP(=O)(O)O)cc1)*; aThr = C[C@H](O)[C@H](N)C(=O)O; Cbz = O=C(OCc1ccccc1)*

tested on: STAT3; conditions: cited from earlier work

SMILES | Type (known STAT3 active)
CC(C)C[C@H](NC(=O)[C@H](Cc1ccc(OP(=O)(O)O)cc1)NC(=O)OCc1ccccc1)C(=O)N1CCC[C@H]1C(=O)N[C@@H](CCC(N)=O)C(=O)N[C@H](C(N)=O)[C@@H](C)O [CHEMBL435121] (Cbz-[pY]LPQT-NH2) | Active
CC(=O)N[C@@H](Cc1ccc(OP(=O)(O)O)cc1)C(=O)N[C@@H](CC(C)C)C(=O)N1C[C@H]2C[C@H]2[C@H]1C(=O)N[C@@H](CCC(N)=O)C(=O)N[C@H](C(N)=O)[C@@H](C)O [CHEMBL436319] (Ac-[pY]L[X5]QT-NH2) | Active
CC(C)C[C@H](NC(=O)c1cc2cc(OP(=O)(O)O)ccc2[nH]1)C(=O)N1CCC[C@H]1C(=O)N[C@@H](CCC(N)=O)C(=O)N[C@H](C(N)=O)[C@@H](C)O [CHEMBL485921] (X1-LPQT-NH2) | Active
CC(=O)N[C@@H](Cc1ccc(OP(=O)(O)O)cc1)C(=O)N[C@@H](CC(C)C)C(=O)N1CCC[C@H]1C(=O)N[C@@H](CCC(N)=O)C(=O)N[C@H](C(=O)N[C@H](C(N)=O)C(C)C)[C@H](C)O [CHEMBL502473] | Active
CC(=O)N[C@@H](Cc1ccc(OP(=O)(O)O)cc1)C(=O)N[C@H]1CCc2cccc3c2N(C1=O)[C@H](C(=O)N[C@@H](CCC(N)=O)C(=O)N[C@H](C(N)=O)[C@@H](C)O)C3 [CHEMBL503765] | Active
CC(=O)N[C@@H](Cc1ccc(OP(=O)(O)O)cc1)C(=O)N[C@@H](CC(C)C)C(=O)N1CCC[C@H]1C(=O)N[C@@H](CCC(N)=O)C(=O)N[C@H](C(N)=O)[C@H](C)O [CHEMBL505076] (Ac-[pY]LPQ[aThr]-NH2) | Active
CC(C)C[C@H](NC(=O)/C=C/c1ccc(OP(=O)(O)O)cc1)C(=O)N1CCC[C@H]1C(=O)NCCCC(N)=O [CHEMBL573048] | Active
CC(C)C[C@H](NC(=O)/C=C/c1ccc(OP(=O)(O)O)cc1)C(=O)N1CCC[C@H]1C(=O)N[C@@H](CC(N)=O)C(=O)NCc1ccccc1 [CHEMBL573901] | Active
CC(C)C[C@H](NC(=O)/C=C/c1ccc(OP(=O)(O)O)cc1)C(=O)N1C[C@H]2C[C@H]2[C@H]1C(=O)N[C@H](C)CCC(N)=O [CHEMBL576784] | Active
CC(C)C[C@H](NC(=O)/C=C/c1ccc(OP(=O)(O)O)cc1)C(=O)N1CCC[C@H]1C(=O)N[C@H](C)CCC(N)=O [CHEMBL578635] | Active
CC(C)C[C@H](NC(=O)/C=C/c1ccc(OP(=O)(O)O)cc1)C(=O)N1C[C@H]2C[C@H]2[C@H]1C(=O)N[C@@H](CCC(N)=O)COCc1ccccc1 [CHEMBL583727] | Active
CC(C)C[C@H](NC(=O)/C=C/c1ccc(OP(=O)(O)O)cc1)C(=O)N1CCC[C@H]1C(=O)N[C@@H](CCC(N)=O)[C@@H](C)OCc1ccccc1 [CHEMBL583758] | Active
CC(C)C[C@H](NC(=O)/C=C/c1ccc(OP(=O)(O)O)cc1)C(=O)N1CCC[C@H]1C(=O)N[C@H](C)COC(N)=O [CHEMBL584376] | Active

same assay, conditions: sheet 6QHD_actives_decoys; known STAT3 actives of the retrospective screening set; ref ChEMBL / literature; cited from earlier work

SMILES | Type (known STAT3 active)
CC(=O)N[C@@H](Cc1ccc(-c2nn[nH]n2)cc1)C(=O)N[C@@H](CC(C)C)C(=O)N1CCC[C@H]1C(=O)N[C@@H](CCC(N)=O)C(=O)N[C@H](C(=O)N[C@H](C(=O)O)C(C)C)[C@@H](C)O [CHEMBL439390] (Ac-[Phe(4-tetrazol-5-yl)]LPQTV-OH) | Active
NC(=O)CC[C@H](NC(=O)[C@@H]1CC[C@@H]2CC[C@H](NC(=O)/C=C/c3ccc(OP(=O)(O)O)cc3)C(=O)N21)C(=O)NCc1ccccc1 [CHEMBL445970] | Active
CC(C)NC(=O)[C@H](CCC(N)=O)NC(=O)[C@@H]1Cc2cccc3c2N1C(=O)[C@@H](NC(=O)/C=C/c1ccc(OP(=O)(O)O)cc1)CC3 [CHEMBL447460] | Active
NC(=O)CC[C@H](NC(=O)[C@@H]1Cc2cccc3c2N1C(=O)[C@@H](NC(=O)/C=C/c1ccc(OP(=O)(O)O)cc1)CC3)C(N)=O [CHEMBL449511] | Active
NC(=O)CC[C@H](NC(=O)[C@@H]1Cc2cccc3c2N1C(=O)[C@@H](NC(=O)/C=C/c1ccc(OP(=O)(O)O)cc1)CC3)C(=O)NCc1ccccc1 [CHEMBL449547] | Active
NC(=O)CC[C@H](NC(=O)[C@@H]1Cc2cccc3c2N1C(=O)[C@@H](NC(=O)c1cc2cc(OP(=O)(O)O)ccc2[nH]1)CC3)C(=O)NCc1ccccc1 [CHEMBL452194] | Active
CNC(=O)[C@H](CCC(N)=O)NC(=O)[C@@H]1Cc2cccc3c2N1C(=O)[C@@H](NC(=O)/C=C/c1ccc(OP(=O)(O)O)cc1)CC3 [CHEMBL454365] | Active
CC(C)C[C@H](NC(=O)/C=C/c1ccc(OP(=O)(O)O)cc1)C(=O)N1CCC[C@H]1C(=O)N[C@@H](CCC(N)=O)C(=O)N[C@H](C(N)=O)[C@@H](C)O [CHEMBL470227] (X4-LPQT-NH2) | Active
O=C(O)CCCNC(=O)[C@@H]1Cc2cccc3c2N1C(=O)[C@@H](NC(=O)/C=C/c1ccc(OP(=O)(O)O)cc1)CC3 [CHEMBL475488] | Active
COC(=O)[C@H](CCC(N)=O)NC(=O)[C@@H]1Cc2cccc3c2N1C(=O)[C@@H](NC(=O)/C=C/c1ccc(OP(=O)(O)O)cc1)CC3 [CHEMBL503365] | Active
NC(=O)CC[C@H](NC(=O)[C@@H]1Cc2cccc3c2N1C(=O)[C@@H](NC(=O)/C=C/c1ccc(OP(=O)(O)O)cc1)C=C3)C(=O)NCc1ccccc1 [CHEMBL508912] | Active
NC(=O)CC[C@H](NC(=O)[C@@H]1Cc2cccc3c2N1C(=O)[C@@H](NC(=O)/C=C/c1ccc(OP(=O)(O)O)cc1)CC3)C(=O)O [CHEMBL510008] | Active
NC(=O)C1CCN(C(=O)[C@@H]2Cc3cccc4c3N2C(=O)[C@@H](NC(=O)/C=C/c2ccc(OP(=O)(O)O)cc2)CC4)C1 (some centres unmarked) [CHEMBL515762] | Active
CC(=O)NC[C@H](CCC(N)=O)NC(=O)[C@@H]1CCCN1C(=O)[C@H](CC(C)C)NC(=O)/C=C/c1ccc(OP(=O)(O)O)cc1 [CHEMBL573442] | Active
CC(C)C[C@H](NC(=O)/C=C/c1ccc(OP(=O)(O)O)cc1)C(=O)N1C[C@H]2C[C@H]2[C@H]1C(=O)N[C@@H](CCC(N)=O)[C@@H](C)OCc1ccccc1 [CHEMBL573443] | Active
CC(C)C[C@H](NC(=O)/C=C/c1ccc(OP(=O)(O)O)cc1)C(=O)N1CCC[C@H]1C(=O)N[C@@H](CCC(N)=O)COC(N)=O [CHEMBL573643] | Active
CC(C)C[C@H](NC(=O)/C=C/c1ccc(OP(=O)(O)O)cc1)C(=O)N1CCC[C@H]1C(=O)N[C@H](COCc1ccccc1)COC(N)=O [CHEMBL573902] | Active
CC(C)C[C@H](NC(=O)/C=C/c1ccc(OP(=O)(O)O)cc1)C(=O)N1CCC[C@H]1C(=O)N[C@@H](CCC(N)=O)Cc1ccc(O)cc1 [CHEMBL573903] | Active
CC(C)C[C@H](NC(=O)/C=C/c1ccc(OP(=O)(O)O)cc1)C(=O)N1CCC[C@H]1C(=O)N[C@@H](CCC(N)=O)COCc1ccccc1 [CHEMBL573904] | Active
CC(C)C[C@H](NC(=O)/C=C/c1ccc(OP(=O)(O)O)cc1)C(=O)N1C[C@H]2C[C@H]2[C@H]1C(=O)N[C@@H](CCC(N)=O)C(C)C [CHEMBL573930] | Active
CC(C)C[C@H](NC(=O)/C=C/c1ccc(OP(=O)(O)O)cc1)C(=O)N1CCC[C@H]1C(=O)NCCNC(N)=O [CHEMBL574636] | Active
CC(C)C[C@H](NC(=O)/C=C/c1ccc(OP(=O)(O)O)cc1)C(=O)N1C[C@H]2C[C@H]2[C@H]1C(=O)N[C@@H](CCC(N)=O)C(=O)NCc1ccccc1 [CHEMBL575497] | Active
CC(C)C[C@H](NC(=O)/C=C/c1ccc(OP(=O)(O)O)cc1)C(=O)N1CCC[C@H]1C(=O)NCCOC(N)=O [CHEMBL576590] | Active
CC(C)C[C@H](NC(=O)/C=C/c1ccc(OP(=O)(O)O)cc1)C(=O)N1C[C@H]2C[C@H]2[C@H]1C(=O)NCCCC(N)=O [CHEMBL577143] | Active
CCCC[C@H](CCC(N)=O)NC(=O)[C@@H]1[C@@H]2C[C@@H]2CN1C(=O)[C@H](CC(C)C)NC(=O)/C=C/c1ccc(OP(=O)(O)O)cc1 [CHEMBL583116] | Active
CC(C)C[C@H](NC(=O)/C=C/c1ccc(OP(=O)(O)O)cc1)C(=O)N1C[C@H]2C[C@H]2[C@H]1C(=O)N[C@@H](CCC(N)=O)[C@@H](C)O [CHEMBL583725] | Active
CC(=O)OC[C@H](CCC(N)=O)NC(=O)[C@@H]1[C@@H]2C[C@@H]2CN1C(=O)[C@H](CC(C)C)NC(=O)/C=C/c1ccc(OP(=O)(O)O)cc1 [CHEMBL583726] | Active
CC(C)C[C@H](NC(=O)/C=C/c1ccc(OP(=O)(O)O)cc1)C(=O)N1C[C@H]2C[C@H]2[C@H]1C(=O)NCCOCc1ccccc1 [CHEMBL583728] | Active
CC(C)C[C@H](NC(=O)[C@H](Cc1ccc(O)cc1)NC(=O)[C@H]1CCCN1C(=O)CN)C(=O)N1CCC[C@H]1C(=O)N[C@@H](CCC(N)=O)C(=O)N[C@H](C(=O)N[C@H](C(N)=O)C(C)C)[C@H](C)O [CHEMBL2367507] (H-G[dP]YLPQ[aThr]V-NH2) | Active

same assay, conditions: sheet 6QHD_actives_decoys; retrospective screening set for STAT3 SH2 domain (PDB 6QHD); […]; ref DUD-E; cited from earlier work

SMILES | Type
COc1cc([N+](=O)[O-])ccc1NC(=S)Nc1ccc(S(=O)(=O)Nc2ccc(Cl)nn2)cc1 [Decoy332] | Inactive (Decoy)

same assay, conditions: sheet 6QHD_actives_decoys; retrospective screening set for STAT3 SH2 domain (PDB 6QHD); decoys generated with DUD-E and presumed inactive, not tested; ref DUD-E; cited from earlier work

SMILES | Type
Nc1nc(OCc2cc(Br)cs2)c2ncn(CCCCCCCCO[C@@H]3O[C@@H](CO)[C@@H](O)[C@@H](O)[C@@H]3O)c2n1 [Decoy329] | Inactive (Decoy)
Nc1nc(OCc2cc(Br)cs2)c2ncn(CCCCCCCCO[C@@H]3O[C@@H](CO)[C@@H](O)[C@@H](O)[C@H]3O)c2n1 [Decoy330] | Inactive (Decoy)
Nc1nc(OCc2cc(Br)cs2)c2ncn(CCCCCCCCO[C@H]3O[C@@H](CO)[C@@H](O)[C@@H](O)[C@@H]3O)c2n1 [Decoy331] | Inactive (Decoy)
COCC(=O)Nc1c(I)c(C(=O)NC[C@H](O)CO)c(I)c(C(=O)N(C)C[C@H](O)CO)c1I [Decoy333] | Inactive (Decoy)
